According to the supplement of paper PMC11208160:

assay: recombinant UMI read abundance after kanamycin selection (control-corrected) (log10(CPM+1)); higher = more efficient recombination; extreme values may be limits of the assay; sequences stand for … in AGTGCAGAGAAAATCGGCCAGTTTTCTCTGCCTGCAGTCCGCATGCCGTGGGACCCCTTGGGTTCTAACCTGTTGCCTAGATTTATGCAGCGGACTGCCTTTCTCCCAAAGTGATAAACCGG…AGGTTGGTTTCACT; site = the 11-nt donor
In short: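 Counts of recombinant UMIs were reported as log10(CPM+1). Before that, they were converted to CPM, averaged over replicates and scaled using control-derived factors. They came from PCR across the donor–target junction after Escherichia coli carrying the pair library and target plasmid was plated on IPTG (0.07 mM) plus kanamycin, or unselected, in two replicates each.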
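Also: IS621 bridge recombinase in Escherichia coli cells against a fixed T5 target plasmid.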

First: TGGCTAGCATGGACCGGTTTTCCCGGTAATCCGTATTTGAA (site TGGCTAGCTTT)
Second: TGGCTAGCATGGACCGGTTTTCCCGGTAATCCGTATTTGAA (site TTGCTAGCTTT)
The “recombinant UMI read abundance (log10)” value of the first is higher: 1.06 for the first, 0.00374 for the second.

Going from “TGGCTCTCATGGACCGGTTTTCCCGGTAATCCGTATTTGCA (site TGGCTCTCTTG)” to “TGGGAACCATGGACCGGTTTTCCCGGTAATCCGTATTTGAT (site AGGGAACCTAT)”, the “recombinant UMI read abundance (log10)” value falls from 1.86 to 0.

“TGGGAACCATGGACCGGTTTTCCCGGTAATCCGTATTTGAT (site CGGGAACCTAT)” and “TGGGAACCATGGACCGGTTTTCCCGGTAATCCGTATTTGAT (site GGGGAACCTAT)” are within 0.2 log units of each other in “recombinant UMI read abundance (log10)” value: 0.00502 for the first, 0 for the second.

Going from “TGGGAACCATGGACCGGTTTTCCCGGTAATCCGTATTTGAT (site TGGGAACCTAT)” to “TGGTCCACATGGACCGGTTTTCCCGGTAATCCGTATTTGTC (site TGGTCCACTGA)”, the “recombinant UMI read abundance (log10)” value rises from 0.00982 to 0.323.

“TGGTCCCCATGGACCGGTTTTCCCGGTAATCCGTATTTGTA (site TGATCCCCTTA)” and “TGGTCCCCATGGACCGGTTTTCCCGGTAATCCGTATTTGTA (site TGCTCCCCTTA)” are within 0.2 log units of each other in “recombinant UMI read abundance (log10)” value: 0 for the first, 0.176 for the second.

“TGGTCCCCATGGACCGGTTTTCCCGGTAATCCGTATTTGTA (site TGGTCCCCTTA)” and “TGGTCCCCATGGACCGGTTTTCCCGGTAATCCGTATTTGTA (site TGTTCCCCTTA)” are within 0.2 log units of each other in “recombinant UMI read abundance (log10)” value: 0.0183 for the first, 0.00825 for the second.

Compared with “TGGTGCACATGGACCGGTTTTCCCGGTAATCCGTATTTGCC (site TGGTGCACTGG)”, “TGGTTCCCATGGACCGGTTTTCCCGGTAATCCGTATTTGTG (site AGGTTCCCTCA)” is lower in “recombinant UMI read abundance (log10)” value: 1.75 for the first, 0.0205 for the second.

“TGGTTCCCATGGACCGGTTTTCCCGGTAATCCGTATTTGTG (site CGGTTCCCTCA)” and “TGGTTCCCATGGACCGGTTTTCCCGGTAATCCGTATTTGTG (site GGGTTCCCTCA)” are within 0.2 log units of each other in “recombinant UMI read abundance (log10)” value: 0.0117 for the first, 0.0263 for the second.

First: TGGTTCCCATGGACCGGTTTTCCCGGTAATCCGTATTTGTG (site TGGTTCCCTCA)
Second: TGGTTGACATGGACCGGTTTTCCCGGTAATCCGTATTTGTA (site TGGTTGACTTA)
The “recombinant UMI read abundance (log10)” value of the first is lower: 0.0117 for the first, 1.04 for the second.

Going from “TGGTTTCCATGGACCGGTTTTCCCGGTAATCCGTATTTGGG (site TGGTTTCCTCC)” to “TGTACACCATGGACCGGTTTTCCCGGTAATCCGTATTTGAC (site AGTACACCTGT)”, the “recombinant UMI read abundance (log10)” value falls from 0.327 to 0.

“TGTACACCATGGACCGGTTTTCCCGGTAATCCGTATTTGAC (site CGTACACCTGT)” and “TGTACACCATGGACCGGTTTTCCCGGTAATCCGTATTTGAC (site GGTACACCTGT)” are the same in “recombinant UMI read abundance (log10)” value: 0 for the first, 0 for the second.

“TGTACACCATGGACCGGTTTTCCCGGTAATCCGTATTTGAC (site TATACACCTGT)” and “TGTACACCATGGACCGGTTTTCCCGGTAATCCGTATTTGAC (site TCTACACCTGT)” are the same in “recombinant UMI read abundance (log10)” value: 0 for the first, 0 for the second.

“TGTACACCATGGACCGGTTTTCCCGGTAATCCGTATTTGAC (site TGAACACCTGT)” and “TGTACACCATGGACCGGTTTTCCCGGTAATCCGTATTTGAC (site TGCACACCTGT)” are the same in “recombinant UMI read abundance (log10)” value: 0 for the first, 0 for the second.

“TGTACACCATGGACCGGTTTTCCCGGTAATCCGTATTTGAC (site TGGACACCTGT)” and “TGTACACCATGGACCGGTTTTCCCGGTAATCCGTATTTGAC (site TGTAAACCTGT)” are within 0.2 log units of each other in “recombinant UMI read abundance (log10)” value: 0.00576 for the first, 0 for the second.

“TGTACACCATGGACCGGTTTTCCCGGTAATCCGTATTTGAC (site TGTACAACTGT)” and “TGTACACCATGGACCGGTTTTCCCGGTAATCCGTATTTGAC (site TGTACACCTAT)” are within 0.2 log units of each other in “recombinant UMI read abundance (log10)” value: 0 for the first, 0.0116 for the second.

“TGTACACCATGGACCGGTTTTCCCGGTAATCCGTATTTGAC (site TGTACACCTCT)” and “TGTACACCATGGACCGGTTTTCCCGGTAATCCGTATTTGAC (site TGTACACCTGA)” are within 0.2 log units of each other in “recombinant UMI read abundance (log10)” value: 0.0222 for the first, 0 for the second.

“TGTACACCATGGACCGGTTTTCCCGGTAATCCGTATTTGAC (site TGTACACCTGC)” and “TGTACACCATGGACCGGTTTTCCCGGTAATCCGTATTTGAC (site TGTACACCTGG)” are the same in “recombinant UMI read abundance (log10)” value: 0 for the first, 0 for the second.

“TGTACACCATGGACCGGTTTTCCCGGTAATCCGTATTTGAC (site TGTACACCTGT)” and “TGTACACCATGGACCGGTTTTCCCGGTAATCCGTATTTGAC (site TGTACACCTTT)” are within 0.2 log units of each other in “recombinant UMI read abundance (log10)” value: 0 for the first, 0.0141 for the second.

“TGTACACCATGGACCGGTTTTCCCGGTAATCCGTATTTGAC (site TGTACAGCTGT)” and “TGTACACCATGGACCGGTTTTCCCGGTAATCCGTATTTGAC (site TGTACATCTGT)” are the same in “recombinant UMI read abundance (log10)” value: 0 for the first, 0 for the second.
